# Measurements: PubChem BioAssay (NCI)
# Where “and” joins values, the source holds several entries; their conditions need not be identical. Equal entries are not always repeated.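 Values below derive from 48-hour exposures of cells grown in 96-well plates, with endpoints linearly interpolated between the two concentrations bracketing the appropriate inhibition level. GI50 = concentration required for 50% inhibition of growth. Definition used: TGI = concentration required for complete inhibition of growth.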
# Columns and labels:
# Experiment in all cases: NCI-60 cell line screen, 48 h
# T-47D breast = tested on: T-47D breast
# MDA-MB-435 = tested on: MDA-MB-435
# MALME-3M melanoma = tested on: MALME-3M melanoma
# TK-10 renal = tested on: TK-10 renal
# 786-0 renal = tested on: 786-0 renal
# SR leukemia = tested on: SR leukemia
# COLO 205 colon = tested on: COLO 205 colon
# MOLT-4 leukemia = tested on: MOLT-4 leukemia
Compound,GI50 (T-47D breast),TGI (T-47D breast),GI50 (MDA-MB-435),TGI (MDA-MB-435),GI50 (MALME-3M melanoma),TGI (MALME-3M melanoma),GI50 (TK-10 renal),TGI (TK-10 renal),GI50 (786-0 renal),TGI (786-0 renal),GI50 (SR leukemia),TGI (SR leukemia),GI50 (COLO 205 colon),TGI (COLO 205 colon),GI50 (MOLT-4 leukemia),TGI (MOLT-4 leukemia)
O=c1oc2ccc(Cl)cc2c(=O)n1-c1ccc(F)cc1F,1.08 µM,5.27 µM,1.64 µM,7.73 µM,1.11 µM,5.38 µM,5.55 µM,68.2 µM,3.07 µM,10.5 µM,1.04 µM,9.75 µM,7.92 µM,23.9 µM,2.33 µM,5.59 µM
CCn1c(SCC(=O)Nc2cc(C(F)(F)F)ccc2Cl)nc2ccccc2c1=O,25.2 µM,> 100 µM,> 100 µM,> 100 µM,34.3 µM,> 100 µM,23.7 µM,66.2 µM,48.6 µM,> 100 µM,> 100 µM,> 100 µM,> 100 µM,> 100 µM,> 100 µM,> 100 µM
O=C(Nc1cccc(C(F)(F)F)c1)c1ccc(NC2=C(Cl)C(=O)N(Cc3ccccc3)C2=O)cc1,12.4 µM,52.7 µM,6.92 µM,20.5 µM,,,17.9 µM,37.4 µM,12.1 µM,24.5 µM,0.421 µM,2.82 µM,21.9 µM,49.8 µM,1.27 µM,10.3 µM
COc1ccc(CNCCCN2C(=O)c3ccc4c5c(ccc(c35)C2=O)C(=O)N(CCCNCc2ccc(OC)c(OC)c2OC)C4=O)c(OC)c1OC,0.0983 µM,0.213 µM,0.0925 µM,0.177 µM,0.0765 µM,0.151 µM,0.0981 µM,0.269 µM,0.333 µM,1.02 µM,0.165 µM,0.644 µM,0.0524 µM,0.12 µM,0.121 µM,0.291 µM
O=C1c2cc3c(cc2-c2c1c1ccc(F)cc1c(=O)n2C[C@H](O)[C@H](O)[C@H](O)CO)OCO3,0.0419 µM,0.391 µM,0.174 µM,0.409 µM,0.209 µM,0.831 µM,0.248 µM,0.873 µM,0.209 µM,21.6 µM,,,0.193 µM,0.959 µM,,
O=[N+]([O-])c1ccc(N=Nc2c(Cl)cc(O)cc2Cl)cc1,0.657 µM,5.46 µM,0.943 µM,3.16 µM,,,4.34 µM,25.8 µM,2.22 µM,9.36 µM,0.421 µM,6.09 µM,1.82 µM,4.17 µM,0.435 µM,2.99 µM
O=C(O)CN1C(=O)CN=C(c2ccccn2)c2cc(Cl)ccc21,,> 100 µM,,> 100 µM,,> 100 µM,,> 100 µM,,> 100 µM,,> 100 µM,,> 100 µM,,21.7 µM
CCN1C(=O)N(CC)C2C1NN=c1s/c(=C\c3ccc(C(F)(F)F)cc3)c(=O)n12 (stereo not drawn),0.36 µM,71.3 µM,0.169 µM,0.437 µM,1.3 µM,> 47.2 µM,2.23 µM,> 62.3 µM,1.23 µM,> 39 µM,0.204 µM,5.77 µM,0.256 µM,0.888 µM,0.417 µM,16.3 µM
Cc1ccc(-c2nc(/C=N/Nc3cc(C)nc4ccc(Br)cc34)c(C)o2)cc1,1.94 µM,3.94 µM,1.72 µM,3.12 µM,2.05 µM,3.62 µM,1.82 µM,3.29 µM,1.86 µM,3.67 µM,2.67 µM,7.71 µM,2.03 µM,3.97 µM,2.32 µM,5.13 µM
COc1ccc(C2CC(c3ccc(OC)cc3O)=NN2c2ccc(S(N)(=O)=O)cc2)cc1 (stereo not drawn),4.42 µM,85.6 µM,6.56 µM,> 100 µM,20.2 µM,> 100 µM,7.18 µM,> 100 µM,18.4 µM,> 100 µM,1.47 µM,9.61 µM,5.98 µM,20.1 µM,2.88 µM,36.6 µM
O=C1OC(c2ccc(Cl)cc2)=N/C1=C\c1ccccc1,,> 100 µM,,> 100 µM,,,,> 100 µM,,> 100 µM,,> 100 µM,,> 100 µM,,
COc1c(C)c(OC)c(C(=O)CC(C)C)c(OC)c1C,,> 100 µM,,> 100 µM,,> 100 µM,,> 100 µM,,> 100 µM,,> 100 µM,,> 100 µM,,> 100 µM
FC(F)(F)c1nc(SCc2ccc(Cl)cc2)n[nH]1,,> 100 µM,,> 100 µM,,> 100 µM,,> 100 µM,,> 100 µM,,> 100 µM,,> 100 µM,,> 100 µM
NNc1nc2ccccc2o1,,> 100 µM,,> 100 µM,,> 100 µM,,> 100 µM,,> 100 µM,,> 100 µM,,> 100 µM,,> 100 µM
CCc1[nH]nc(C(N)=O)c1N=NN(C)C,,> 100 µM,,> 100 µM,,> 100 µM,,> 100 µM,,> 100 µM,,38.9 µM,,> 100 µM,,41.6 µM
O=C(c1ccccc1)C1OC1C(=O)c1ccccc1 (stereo not drawn),3.51 µM,> 100 µM,2.86 µM,> 100 µM,3.24 µM,66 µM,1.86 µM,8.37 µM,4.35 µM,84.9 µM,,,4.94 µM,15.4 µM,,
O=C1/C(=C/c2ccc(F)cc2)CN(C(=O)C(Cl)Cl)C/C1=C\c1ccc(F)cc1,0.702 µM,3.6 µM,0.212 µM,0.486 µM,0.212 µM,0.528 µM,0.67 µM,1.96 µM,0.213 µM,0.499 µM,0.0386 µM,> 100 µM,0.353 µM,1.42 µM,0.309 µM,> 100 µM
CCCCC(OC(=O)c1ccc(N)cc1)C(=O)Nc1nc(CC(=O)OCC)cs1 (stereo not drawn),38.7 µM,> 100 µM,35 µM,> 100 µM,30.1 µM,> 100 µM,40 µM,> 100 µM,53.6 µM,> 100 µM,42.8 µM,> 100 µM,31.6 µM,> 100 µM,35.8 µM,> 100 µM

Compound,GI50 (T-47D breast),TGI (T-47D breast),GI50 (MDA-MB-435),TGI (MDA-MB-435),GI50 (MALME-3M melanoma),TGI (MALME-3M melanoma),GI50 (TK-10 renal),TGI (TK-10 renal),GI50 (786-0 renal),TGI (786-0 renal),GI50 (SR leukemia),TGI (SR leukemia),GI50 (COLO 205 colon),TGI (COLO 205 colon),GI50 (MOLT-4 leukemia),TGI (MOLT-4 leukemia)
CCCS(=O)(=O)Nc1cccc(Nc2ncnc3cc(NC(=O)CCl)ccc23)c1Cl,3.34 µM,9.99 µM,1.47 µM,5.76 µM,0.674 µM,4.28 µM,3.21 µM,7 µM,0.935 µM,3.88 µM,0.838 µM,5.49 µM,1.2 µM,5.51 µM,1.04 µM,7.13 µM
O=C(CCCC(=O)N/N=C/c1cc(Cl)ccc1O)N/N=C\c1cc(Cl)ccc1O,3.23 µM,> 100 µM,6.87 µM,> 100 µM,,,,,3.59 µM,> 100 µM,,,4.16 µM,> 100 µM,2.52 µM,23.2 µM
COc1cc(NS(C)(=O)=O)ccc1Cc1c2ccccc2nc2ccccc12,0.0535 µM,1.37 µM,1.23 µM,11.3 µM,0.192 µM,1.65 µM,0.228 µM,1.45 µM,0.139 µM,0.64 µM,,0.139 µM,0.0812 µM,2.4 µM,,0.0265 µM
CC1=C2[C@@H](CC1)[C@]1(C)O[C@@](C(C)C)(C[C@H]1OC(=O)CO)[C@H]2OC(=O)CCCc1ccccc1,2.54 µM,12.3 µM,13.1 µM,26.2 µM,6.52 µM,19.8 µM,18.6 µM,32.8 µM,13.1 µM,28.7 µM,11.3 µM,36.6 µM,6.52 µM,21.8 µM,3.66 µM,15.2 µM
CCOC(=O)Nc1ccc2c(c1)C(=O)N(CC)c1ccccc1O2,,,0.0311 µM,0.11 µM,31.8 µM,> 100 µM,> 100 µM,> 100 µM,0.434 µM,> 100 µM,0.0479 µM,,0.0819 µM,0.617 µM,0.125 µM,> 100 µM
O=C(Nc1cn[nH]c1-c1nc2ccc(CN3CCOCC3)cc2[nH]1)NC1CC1,1.82 µM and 9.18 µM,6.95 µM and > 10 µM,1.43 µM and 6.77 µM,5 µM and > 10 µM,3.05 µM and > 10 µM,8.32 µM and > 10 µM,1.24 µM and 5.07 µM,6 µM and > 10 µM,1.06 µM and 1.67 µM,7.68 µM and > 10 µM,0.0277 µM and 0.0539 µM,4.15 µM and 5.52 µM,0.0376 µM and 0.0752 µM,1.75 µM and 3.81 µM,1.87 µM and 2.52 µM,5.4 µM and > 10 µM
C=CCOc1ccc(N)c([N+](=O)[O-])c1,,> 100 µM,,> 100 µM,,> 100 µM,,> 100 µM,,> 100 µM,,> 100 µM,,> 100 µM,,> 100 µM
CC[C@H]1CCC/C=C/[C@@H]2C[C@H](O)C[C@H]2[C@H](O)/C=C/C(=O)O1,0.0636 µM,0.263 µM,0.0434 µM,> 100 µM,0.0381 µM,,0.0355 µM,0.568 µM,0.0204 µM,0.042 µM,0.0292 µM,0.115 µM,0.0213 µM,0.0395 µM,0.0354 µM,> 100 µM
Cc1ccc2[nH]c(O)c(N=Nc3ccccc3[N+](=O)[O-])c2c1,,14 µM,,> 100 µM,,7.9 µM,,64.5 µM,,3.6 µM,,32.6 µM,,> 100 µM,,> 100 µM
CCN(CC)CCCNc1n[n+]([O-])c2ccccc2[n+]1[O-],,68.1 µM,,> 100 µM,,25.3 µM,,39 µM,,33.4 µM,,76.2 µM,,40.1 µM,,11.4 µM
O=c1cc(-c2ccccc2)oc2c1ccc1ccccc12,23.9 µM,> 100 µM,30 µM,> 100 µM,29.1 µM,72.1 µM,28.2 µM,65 µM,27.9 µM,> 100 µM,,,24.2 µM,> 100 µM,23.5 µM,51.5 µM
COc1ccc2c(c1)C(=O)c1c-2c(N2CCN(C(=O)CCNCCNCCN)CC2)nc2ccccc12,3.43 µM,15.6 µM,6.86 µM,30 µM,2.78 µM,6.9 µM,18.4 µM,42.1 µM,2.51 µM,6.62 µM,,,2.54 µM,6.34 µM,1 µM,2.18 µM
CC[C@]12C=CCN3CC[C@@]4(c5ccc(OC)cc5N(C)[C@H]4[C@@](O)(C(=O)OC)[C@@H]1OC(=O)CCC(=O)O[C@H]1CC[C@H]4[C@@H]5CC[C@H]6CC(=O)CC[C@]6(C)[C@H]5CC[C@]14C)[C@@H]32,2.1 µM,29.7 µM,2.89 µM,> 100 µM,2.98 µM,57.7 µM,2.55 µM,17.8 µM,1.97 µM,> 100 µM,,,,,2.59 µM,> 100 µM
CC1(C)CCc2c(c(N=Nc3ccccc3F)c3ccccc3c2O)O1,36.9 µM,> 100 µM,> 100 µM,> 100 µM,34.5 µM,> 100 µM,68.2 µM,> 100 µM,26.1 µM,60.3 µM,,,> 100 µM,> 100 µM,> 100 µM,> 100 µM
CCOC(=O)c1c(-c2ccc(OC)c(O)c2)c(C#N)c(=S)n(C2OC(COC(C)=O)C(OC(C)=O)C(OC(C)=O)C2OC(C)=O)c1-c1ccccc1 (stereo not drawn),,,31.7 µM and 67.9 µM,91.6 µM and > 100 µM,,57 µM,,,35.1 µM and > 100 µM,> 100 µM,,> 100 µM,27.9 µM and > 100 µM,> 100 µM,38.3 µM and > 100 µM,> 100 µM
COc1cc2c(c(OC)c1OC)-c1c(c3ccc([N+](=O)[O-])cc3c(=O)n1CCCBr)C2=O,,,> 100 µM,> 100 µM,11.4 µM,47.6 µM,23.5 µM,90.2 µM,35.1 µM,> 100 µM,4.37 µM,> 100 µM,> 100 µM,> 100 µM,15.2 µM,> 100 µM
COc1ccc(C2=NN(C(C)=O)C(c3ccc(Oc4ccnc5cc(Cl)ccc45)c(OC)c3)C2)cc1 (stereo not drawn),5.54 µM,34.9 µM,> 100 µM,> 100 µM,,,,,4.52 µM,26.8 µM,> 100 µM,> 100 µM,,,> 100 µM,> 100 µM
